“And” between values parts separate entries of the source, which are not always exact repeats. Equal entries are not always repeated.
Columns and labels:
Format in all cases: in vivo
[1] = system: R6/2 transgenic mice; experiment: Rotarod test in R6/2 transgenic mouse model of Huntington's disease
Protocol: (§1) The rotarod test and body weight measurements were used to assess the therapeutic effects of clotrimazole in R6/2 transgenic mice. R6/2 and WT male mice at 4 weeks of age were trained 3 consecutive days on the accelerating rotarod. Each training day consisted of four sessions. After the training was complete, the animals were reassigned to new groups to create statistically homogenous cohorts. At 5 weeks of age, animals (n=10 per group) were dosed twice daily, intraperitoneally (IP) with clotrimazole at either 2 mg/kg or 10 mg/kg (equal to 4 and 20 mg/kg per day). Rotarod testing was performed at 6, 8, 10, and 12 weeks of age as described above. Body weights were collected every week.

[2] = system: HD model flies (elav-GAL4 UAS-htt128Q); experiment: Assay of locomotor activity (climbing speed) using the transgenic Drosophila HD model; parameters: Early Speed Effect Size, Summary / Late Speed Effect Size, Summary / Early Speed Effect Size / Late Speed Effect Size / Early Speed Adj Value / Late Speed Adj Value / Early Speed Effect Size, combined campaigns / Late Speed Effect Size, combined campaigns: unit not given here; settings: for Early Speed Effect Size, combined campaigns / Early Speed Percent TSA, combined campaigns / Early Speed Effect Size / Early Speed Adj Value / Early Speed Percent TSA: days 1 to 7; for Early Speed Effect Size, combined campaigns / Early Speed Percent TSA, combined campaigns / Late Speed Effect Size, combined campaigns / Late Speed Percent TSA, combined campaigns: drawing 84; for Late Speed Effect Size, combined campaigns / Late Speed Percent TSA, combined campaigns / Late Speed Percent TSA / Late Speed Adj Value / Late Speed Effect Size: days 8 to 10; for Early Speed Effect Size, Summary / Early Speed Percent TSA, Summary: days 1-7; for Late Speed Effect Size, Summary / Late Speed Percent TSA, Summary: days 8-10; for Early Speed Effect Size: food conc 50 (unit not printed; b38: μM); for Early Speed Effect Size / Late Speed Effect Size: vs DMSO carrier; for Early Speed Effect Size / Early Speed Adj Value / Early Speed Percent TSA / Late Speed Percent TSA / Late Speed Adj Value / Late Speed Effect Size: single campaigns; for Early Speed Percent TSA: effect size as percentage of positive control TSA; for Late Speed Percent TSA: effect size as percentage of TSA
Protocol: Female “activator” or “driver” flies were engineered to contain the neuronal specific drivers elav-GAL4 or nirvana-GAL4 in a heat shock-hid Y (phs-hidY or HS-hid+ on Y chomosome) background (Starz-Gaiano et al., 2001). The hid gene is a pro-apoptotic gene, which is expressed in this line by a heat inducible promoter. These flies can be heat shocked in bottles twice over 2 days for 2 hours to kill male larvae and thereby produce massive numbers of elav-GAL4 or nirvana-GAL4 virgin females.
For the mass production of males (either UAS-htt128Q[F27B]/UAS-htt128Q[F27B], the disease transgenes were moved into lines that contain an attached X-chromosome with the same phs-hid element (X^XPhs-hidY) used above. In this scheme the hid gene is present only in female flies and therefore is used to produce large numbers of male flies by heat shock. The massive collection of virgin female elav-GAL4 flies are crossed with the massive collection of males that contain the silent disease-transgene. Their progeny, the F1 generation, are the “assay flies” (e.g., elav-GAL4UAS-htt128Q[F27B]). These assay flies are robotically distributed into drugged assay vials.
The HD Drosophila model express exons 1 to 4 of the human huntingtin gene with 128Q repeats in exon 1. The construct was cloned into the Drosophila transformation vector, pUAST. These were then crossed to GAL4 driver lines that direct expression either to the eye (GMR-GAL4 promoter) or to neurons (elav-GAL4 promoter). […] Progressive degeneration of the photoreceptors was observed after several days of adult life. The properties of the HD128Q flies were consistent with those reported by others for two other strains in which exon-1 containing expanded repeats was expressed in the eye (Jackson et al., 1998; Steffan et al., 2001—US20040142859). To test the effects on motor function of the HD mutation, HD128Q lines were examined in which the transgene was expressed in all neurons. Motor function was assayed by tapping flies in a vial to the bottom and measuring the number of flies that are able to climb to a specified height within a specific length of time. When tapped to the bottom of a vial, wild-type flies rapidly climb to the top, where most of them remain. […] The decline in motor performance was progressive, leading to early death. […] The HD128Q model thus has a functional deficit that in its phenotypic and neuropathological characteristics appears to be related to that seen in the human disease. Moreover, as the deficit is quantifiable and reproducible, it is suitable for automated high-throughput screening.
Standard environmental conditions were followed to establish that different metrics detect differences between disease and control flies. A comparison of compound-treated HD flies and untreated HD flies was also included. The positive control compound tested was the Histone Deacetylase (HDAC) inhibitor Trichostatin-A (TSA).
In an assay run (typically corresponding to one day of an entire multi-day assay) the following process was followed. Each tube was dropped onto a surface, causing the flies to fall to the bottom of the tube and be subjected to impact shock stimulation. Their immediate negative geotaxis response to that event was thereafter captured in a 7.5 second movie. For each tube, this step was repeated five times, giving a total of five repeat videos per tube and run. The raw data for each video were analyzed and trajectories following the movements of individual flies in a tube were generated. The method for analyzing fly trajectories is described in published U.S. Patent Application 2004/0076318A1, which is hereby incorporated by reference in its entirety. The trajectories consisted of a list of x- and y-coordinates mapping out the positions of all the flies in the video, as well as measurements of size, orientation, length and width of the flies, with one list entry for every frame from when the fly started moving in one frame until it stopped in another. […]

[3] = system: R6/2 transgenic mice; experiment: Body weight in R6/2 transgenic mouse model of Huntington's disease
Protocol: as §1

[4] = conc 50, campaigns drawing 83, drawing 85
[5] = conc 100, campaigns drawing 74, drawing 76, drawing 83, drawing 89
[6] = conc 150, campaigns drawing 83, drawing 86, drawing 88, drawing 89
[7] = dose 50, weighted average of campaigns drawing 83, drawing 84 (Table 1)
[8] = dose 100, weighted average of campaigns drawing 74, drawing 76, drawing 83, drawing 84 (Table 1)
[9] = dose 150, weighted average of campaigns drawing 83, drawing 84 (Table 1)
[10] = food conc 50, listed as CLOTRIMAZOLE

**Q.** Which results are given for `Clc1ccccc1C(c1ccccc1)(c1ccccc1)n1ccnc1` [clotrimazole]?
**A.** Rotarod effect ([1]; 20 mg/kg/day IP-BID, any time point tested (6, 8, 10, 12 weeks of age)): did not have a statistically significant effect; Rotarod effect vs vehicle-treated R6/2 animals ([1]; at the higher dose as printed, P=0.01 (Wilcoxon test)): statistically-significant effect; Behavior in vivo (rotarod) ([1]; low dose of 4 mg/kg/day (2 mg/kg IP twice daily), preliminary data): positively affects; Early Speed Effect Size, combined campaigns [2, 4]: 0.867; Early Speed Percent TSA, combined campaigns [2, 4]: 37.7%; Late Speed Effect Size, combined campaigns [2, 4]: 1.076; Late Speed Percent TSA, combined campaigns [2, 4]: 36.3%; Early Speed Effect Size, combined campaigns [2, 5]: 0.89; Early Speed Percent TSA, combined campaigns [2, 5]: 32%; Late Speed Effect Size, combined campaigns [2, 5]: 1.372; Late Speed Percent TSA, combined campaigns [2, 5]: 36.8%; Early Speed Effect Size, combined campaigns [2, 6]: 1.211; Early Speed Percent TSA, combined campaigns [2, 6]: 43.8%; Late Speed Effect Size, combined campaigns [2, 6]: 1.664; Late Speed Percent TSA, combined campaigns [2, 6]: 42.8%; Early Speed Effect Size, Summary [2, 7]: 0.8; Early Speed Percent TSA, Summary [2, 7]: 25.9%; Late Speed Effect Size, Summary [2, 7]: 1.43; Late Speed Percent TSA, Summary [2, 7]: 35.7%; Early Speed Effect Size, Summary [2, 8]: 1.13; Early Speed Percent TSA, Summary [2, 8]: 39.6%; Late Speed Effect Size, Summary [2, 8]: 1.42; Late Speed Percent TSA, Summary [2, 8]: 39.6%; Early Speed Effect Size, Summary [2, 9]: 1.35; Early Speed Percent TSA, Summary [2, 9]: 41.6%; Late Speed Effect Size, Summary [2, 9]: 1.8; Late Speed Percent TSA, Summary [2, 9]: 42.7%; Climbing assay, dose dependence ([2]; doses 50, 100, 150 (Table 1)): dose-dependent effect; Early Speed Effect Size [2]: 0.73 and 0.88; Early Speed Effect Size ([2]; listed as CLOTRIMAZOLE): 0.725 and 0.882 and 0.932; Early Speed Adj Value ([2]; food conc 50 (μM)): 11.2 and 10.98 and 10.15; Early Speed Percent TSA ([2]; food conc 50): 26.3% and 25.4%; Early Speed Percent TSA [2, 10]: 26.3% and 25.4% and 48.8%; Late Speed Percent TSA ([2]; food conc 50): 38.8% and 31.5%; Late Speed Percent TSA [2, 10]: 38.8% and 31.5% and 36.8%; Late Speed Adj Value ([2]; food conc 50): 6.587 and 5.802 and 6.193; Late Speed Effect Size ([2]; food conc 50): 1.46 and 1.39; Late Speed Effect Size [2, 10]: 1.458 and 1.39 and 0.767; Early Speed Adj Value ([2]; food conc 100 (μM)): 10.12 and 11.32 and 11.4873 and 10.63 and 10.84; Late Speed Adj Value ([2]; food conc 100): 5.805 and 5.534 and 6.208 and 6.981 and 6.155; Early Speed Adj Value ([2]; food conc 150 (unit not given)): 11.15 and 11.68 and 10.57 and 10.74 and 11.13; Late Speed Adj Value ([2]; food conc 150): 6.189 and 6.817 and 5.855 and 5.983 and 6.595; Effect in Drosophila model of HD ([2]; vs carrier controls, metrics early speed (days 1-7) and late speed (days 8-10)): reproducible positive effects; Body weight compared to vehicle-treated R6/2 mice ([3]; 4 mg/kg IP-BID, 12 week of age, F test ANOVA): maintained a higher body weight; Body weight effect ([3]; 20 mg/kg IP-BID, any time point tested): did not have a statistically significant effect; Weight in vivo ([3]; low dose of 4 mg/kg/day, preliminary data): positively affects
